The test system of one assay is P. falciparum cultures. Kind of assay: Exponential killing rate at IC80. Type of assay: cell-based, Plasmodium falciparum. The note with it: triplicate.
The subject of assay [1] is P. falciparum 3D7 parasites. Kind of assay: Isopentenyl pyrophosphate (IPP) rescue assay. It is filed as cell-based, Plasmodium falciparum. The note with it: drug at IC80 for one IEC before IPP (200 μM). The text has this:
Fig. 2. […] Nuclei are stained with 4’,6-diamidino-2-phenylindole (DAPI; blue). […] (B) Dose-dependent interactions between MED6-189 (blue) and various antimalarials with known mechanisms of action (red). […] The regression line represents a nonlinear regression (variable slope with four parameters), with significant differences considered if P < 0.05. […] Isobologram curves are expected to be parallel to the diagonal for additive drug pairs, concave for synergistic drug pairs, and convex for antagonistic drug pairs. […] The analysis was performed using a two-way ANOVA, n = 3, with P < 0.05 significance.
IPP is a product of the MEP/DOXP pathway, and its supplementation reduces susceptibility to MEP inhibitors. […] Parasites were drugged at 80% inhibitory concentrations (IC80) for one IEC before IPP (200 μM) supplementation.

Take `O=CN(O)CCCP(=O)(O)O` [fosmidomycin, reference compound]: the “Exponential killing rate k = (1/t)* log10(N0/Nt)” value in the assay on P. falciparum cultures (at IC80, 48 HPS) turned out to be 0.007019; in the assay with P. falciparum cultures (at IC80, 72 HPS) it was 0.01081; in the assay on P. falciparum cultures (at IC80, 100 HPS), 0.008797. The “rescue of parasites by IPP supplementation” value in assay [1] is “survived the second IEC and initiated a third cycle”.

(Values after article PMC11793105, “A kalihinol analog disrupts apicoplast function and vesicular trafficking in P. falciparum malaria” (Science (New York, N.Y.), 2024).)
